assay: The drug is tested on Anaerococcus hydrogenalis strain: DSM7454 for biotransformation. The drug concentrations were measured before and after a 12-h incubation by liquid-chromatography-coupled mass spectrometry (LC–MS); details: 2 µM

SMILES | Bacterial Biotransformation
COc1ccc(CCN(C)CCCC(C#N)(c2ccc(OC)c(OC)c2)C(C)C)cc1OC (stereo not drawn) | Compound NOT metabolized
Cc1ccc(S(=O)(=O)NC(=O)NN2CCCCCC2)cc1 [TOLAZAMIDE] | Compound NOT metabolized
O=C1C(CC[S+]([O-])c2ccccc2)C(=O)N(c2ccccc2)N1c1ccccc1 (stereo not drawn) [SULFINPYRAZONE] | Compound NOT metabolized
CCCCc1nc(Cl)c(CO)n1Cc1ccc(-c2ccccc2-c2nn[nH]n2)cc1 [LOSARTAN] | Compound NOT metabolized

details: enterocloster bolteae, 12 h, 2 µM

SMILES | Bacterial Biotransformation
Cc1ccc(S(=O)(=O)NC(=O)NN2CCCCCC2)cc1 [TOLAZAMIDE] | Compound NOT metabolized
O=C1C(CC[S+]([O-])c2ccccc2)C(=O)N(c2ccccc2)N1c1ccccc1 (stereo not drawn) [SULFINPYRAZONE] | Compound NOT metabolized
CCCCc1nc(Cl)c(CO)n1Cc1ccc(-c2ccccc2-c2nn[nH]n2)cc1 [LOSARTAN] | Compound NOT metabolized

assay: The drug is tested on Bifidobacterium longum subsp. Infantis strain: CCUG52486 for biotransformation. The drug concentrations were measured before and after a 12-h incubation by liquid-chromatography-coupled mass spectrometry (LC–MS); details: 2 µM

SMILES | Bacterial Biotransformation
COc1ccc(CCN(C)CCCC(C#N)(c2ccc(OC)c(OC)c2)C(C)C)cc1OC (stereo not drawn) | Compound NOT metabolized
Cc1ccc(S(=O)(=O)NC(=O)NN2CCCCCC2)cc1 [TOLAZAMIDE] | Compound metabolized
O=C1C(CC[S+]([O-])c2ccccc2)C(=O)N(c2ccccc2)N1c1ccccc1 (stereo not drawn) [SULFINPYRAZONE] | Compound NOT metabolized
CCCCc1nc(Cl)c(CO)n1Cc1ccc(-c2ccccc2-c2nn[nH]n2)cc1 [LOSARTAN] | Compound NOT metabolized

assay: The drug is tested on Parabacteroides merdae strain: ATCC43184 for biotransformation. The drug concentrations were measured before and after a 12-h incubation by liquid-chromatography-coupled mass spectrometry (LC–MS); details: 2 µM

SMILES | Bacterial Biotransformation
COc1ccc(CCN(C)CCCC(C#N)(c2ccc(OC)c(OC)c2)C(C)C)cc1OC (stereo not drawn) | Compound NOT metabolized
O=C1C(CC[S+]([O-])c2ccccc2)C(=O)N(c2ccccc2)N1c1ccccc1 (stereo not drawn) [SULFINPYRAZONE] | Compound NOT metabolized
CCCCc1nc(Cl)c(CO)n1Cc1ccc(-c2ccccc2-c2nn[nH]n2)cc1 [LOSARTAN] | Compound metabolized

assay: The drug is tested on Providencia stuartii strain: ATCC25827 for biotransformation. The drug concentrations were measured before and after a 12-h incubation by liquid-chromatography-coupled mass spectrometry (LC–MS); details: 2 µM

SMILES | Bacterial Biotransformation
COc1ccc(CCN(C)CCCC(C#N)(c2ccc(OC)c(OC)c2)C(C)C)cc1OC (stereo not drawn) | Compound NOT metabolized
O=C1C(CC[S+]([O-])c2ccccc2)C(=O)N(c2ccccc2)N1c1ccccc1 (stereo not drawn) [SULFINPYRAZONE] | Compound NOT metabolized
CCCCc1nc(Cl)c(CO)n1Cc1ccc(-c2ccccc2-c2nn[nH]n2)cc1 [LOSARTAN] | Compound NOT metabolized

details: bacteroides thetaiotaomicron, 12 h, 2 µM

SMILES | Bacterial Biotransformation
COc1ccc(CCN(C)CCCC(C#N)(c2ccc(OC)c(OC)c2)C(C)C)cc1OC (stereo not drawn) | Compound metabolized
Cc1ccc(S(=O)(=O)NC(=O)NN2CCCCCC2)cc1 [TOLAZAMIDE] | Compound metabolized
O=C1C(CC[S+]([O-])c2ccccc2)C(=O)N(c2ccccc2)N1c1ccccc1 (stereo not drawn) [SULFINPYRAZONE] | Compound NOT metabolized

assay: The drug is tested on Bacteroides coprophilus strain: DSM18228 for biotransformation. The drug concentrations were measured before and after a 12-h incubation by liquid-chromatography-coupled mass spectrometry (LC–MS); details: 2 µM

SMILES | Bacterial Biotransformation
COc1ccc(CCN(C)CCCC(C#N)(c2ccc(OC)c(OC)c2)C(C)C)cc1OC (stereo not drawn) | Compound NOT metabolized
Cc1ccc(S(=O)(=O)NC(=O)NN2CCCCCC2)cc1 [TOLAZAMIDE] | Compound metabolized
O=C1C(CC[S+]([O-])c2ccccc2)C(=O)N(c2ccccc2)N1c1ccccc1 (stereo not drawn) [SULFINPYRAZONE] | Compound NOT metabolized
CCCCc1nc(Cl)c(CO)n1Cc1ccc(-c2ccccc2-c2nn[nH]n2)cc1 [LOSARTAN] | Compound NOT metabolized

assay: The drug is tested on Bacteroides pectinophilus strain: ATCC43243 for biotransformation. The drug concentrations were measured before and after a 12-h incubation by liquid-chromatography-coupled mass spectrometry (LC–MS); details: 2 µM

SMILES | Bacterial Biotransformation
COc1ccc(CCN(C)CCCC(C#N)(c2ccc(OC)c(OC)c2)C(C)C)cc1OC (stereo not drawn) | Compound NOT metabolized
Cc1ccc(S(=O)(=O)NC(=O)NN2CCCCCC2)cc1 [TOLAZAMIDE] | Compound metabolized
O=C1C(CC[S+]([O-])c2ccccc2)C(=O)N(c2ccccc2)N1c1ccccc1 (stereo not drawn) [SULFINPYRAZONE] | Compound NOT metabolized
CCCCc1nc(Cl)c(CO)n1Cc1ccc(-c2ccccc2-c2nn[nH]n2)cc1 [LOSARTAN] | Compound NOT metabolized

assay: The drug is tested on Collinsella aerofaciens strain: ATCC25986 for biotransformation. The drug concentrations were measured before and after a 12-h incubation by liquid-chromatography-coupled mass spectrometry (LC–MS); details: 2 µM

SMILES | Bacterial Biotransformation
COc1ccc(CCN(C)CCCC(C#N)(c2ccc(OC)c(OC)c2)C(C)C)cc1OC (stereo not drawn) | Compound NOT metabolized
O=C1C(CC[S+]([O-])c2ccccc2)C(=O)N(c2ccccc2)N1c1ccccc1 (stereo not drawn) [SULFINPYRAZONE] | Compound NOT metabolized
CCCCc1nc(Cl)c(CO)n1Cc1ccc(-c2ccccc2-c2nn[nH]n2)cc1 [LOSARTAN] | Compound NOT metabolized

assay: The drug is tested on Bacteroides sp. WH2 strain: WH2 for biotransformation. The drug concentrations were measured before and after a 12-h incubation by liquid-chromatography-coupled mass spectrometry (LC–MS); details: bacteroides sp. wh2, 12 h, 2 µM

SMILES | Bacterial Biotransformation
COc1ccc(CCN(C)CCCC(C#N)(c2ccc(OC)c(OC)c2)C(C)C)cc1OC (stereo not drawn) | Compound NOT metabolized
Cc1ccc(S(=O)(=O)NC(=O)NN2CCCCCC2)cc1 [TOLAZAMIDE] | Compound NOT metabolized
CCCCc1nc(Cl)c(CO)n1Cc1ccc(-c2ccccc2-c2nn[nH]n2)cc1 [LOSARTAN] | Compound NOT metabolized

details: bacteroides eggerthii, 12 h, 2 µM

SMILES | Bacterial Biotransformation
COc1ccc(CCN(C)CCCC(C#N)(c2ccc(OC)c(OC)c2)C(C)C)cc1OC (stereo not drawn) | Compound NOT metabolized
Cc1ccc(S(=O)(=O)NC(=O)NN2CCCCCC2)cc1 [TOLAZAMIDE] | Compound metabolized
O=C1C(CC[S+]([O-])c2ccccc2)C(=O)N(c2ccccc2)N1c1ccccc1 (stereo not drawn) [SULFINPYRAZONE] | Compound NOT metabolized

assay: The drug is tested on Bacteroides dorei strain: DSM17855 for biotransformation. The drug concentrations were measured before and after a 12-h incubation by liquid-chromatography-coupled mass spectrometry (LC–MS); details: phocaeicola dorei, 2 µM

SMILES | Bacterial Biotransformation
Cc1ccc(S(=O)(=O)NC(=O)NN2CCCCCC2)cc1 [TOLAZAMIDE] | Compound metabolized
CCCCc1nc(Cl)c(CO)n1Cc1ccc(-c2ccccc2-c2nn[nH]n2)cc1 [LOSARTAN] | Compound metabolized

assay: The drug is tested on Bacteroides fragilis strain: HMW610 for biotransformation. The drug concentrations were measured before and after a 12-h incubation by liquid-chromatography-coupled mass spectrometry (LC–MS); details: 2 µM

SMILES | Bacterial Biotransformation
COc1ccc(CCN(C)CCCC(C#N)(c2ccc(OC)c(OC)c2)C(C)C)cc1OC (stereo not drawn) | Compound NOT metabolized
Cc1ccc(S(=O)(=O)NC(=O)NN2CCCCCC2)cc1 [TOLAZAMIDE] | Compound metabolized
O=C1C(CC[S+]([O-])c2ccccc2)C(=O)N(c2ccccc2)N1c1ccccc1 (stereo not drawn) [SULFINPYRAZONE] | Compound metabolized
CCCCc1nc(Cl)c(CO)n1Cc1ccc(-c2ccccc2-c2nn[nH]n2)cc1 [LOSARTAN] | Compound metabolized

details: bacteroides intestinalis, 12 h, 2 µM

SMILES | Bacterial Biotransformation
COc1ccc(CCN(C)CCCC(C#N)(c2ccc(OC)c(OC)c2)C(C)C)cc1OC (stereo not drawn) | Compound metabolized
Cc1ccc(S(=O)(=O)NC(=O)NN2CCCCCC2)cc1 [TOLAZAMIDE] | Compound NOT metabolized

details: limosilactobacillus reuteri cf48-3a, 12 h, 2 µM

SMILES | Bacterial Biotransformation
COc1ccc(CCN(C)CCCC(C#N)(c2ccc(OC)c(OC)c2)C(C)C)cc1OC (stereo not drawn) | Compound NOT metabolized
O=C1C(CC[S+]([O-])c2ccccc2)C(=O)N(c2ccccc2)N1c1ccccc1 (stereo not drawn) [SULFINPYRAZONE] | Compound NOT metabolized
CCCCc1nc(Cl)c(CO)n1Cc1ccc(-c2ccccc2-c2nn[nH]n2)cc1 [LOSARTAN] | Compound NOT metabolized

assay: The drug is tested on Ruminococcus gnavus strain: ATCC29149 for biotransformation. The drug concentrations were measured before and after a 12-h incubation by liquid-chromatography-coupled mass spectrometry (LC–MS); details: mediterraneibacter gnavus, 2 µM

SMILES | Bacterial Biotransformation
COc1ccc(CCN(C)CCCC(C#N)(c2ccc(OC)c(OC)c2)C(C)C)cc1OC (stereo not drawn) | Compound NOT metabolized
Cc1ccc(S(=O)(=O)NC(=O)NN2CCCCCC2)cc1 [TOLAZAMIDE] | Compound NOT metabolized
O=C1C(CC[S+]([O-])c2ccccc2)C(=O)N(c2ccccc2)N1c1ccccc1 (stereo not drawn) [SULFINPYRAZONE] | Compound NOT metabolized
CCCCc1nc(Cl)c(CO)n1Cc1ccc(-c2ccccc2-c2nn[nH]n2)cc1 [LOSARTAN] | Compound NOT metabolized

assay: The drug is tested on Collinsella intestinalis strain: DSM13280 for biotransformation. The drug concentrations were measured before and after a 12-h incubation by liquid-chromatography-coupled mass spectrometry (LC–MS); details: 2 µM

SMILES | Bacterial Biotransformation
COc1ccc(CCN(C)CCCC(C#N)(c2ccc(OC)c(OC)c2)C(C)C)cc1OC (stereo not drawn) | Compound NOT metabolized
Cc1ccc(S(=O)(=O)NC(=O)NN2CCCCCC2)cc1 [TOLAZAMIDE] | Compound NOT metabolized
O=C1C(CC[S+]([O-])c2ccccc2)C(=O)N(c2ccccc2)N1c1ccccc1 (stereo not drawn) [SULFINPYRAZONE] | Compound NOT metabolized
CCCCc1nc(Cl)c(CO)n1Cc1ccc(-c2ccccc2-c2nn[nH]n2)cc1 [LOSARTAN] | Compound NOT metabolized

assay: The drug is tested on Edwardsiella tarda strain: ATCC23685 for biotransformation. The drug concentrations were measured before and after a 12-h incubation by liquid-chromatography-coupled mass spectrometry (LC–MS); details: 2 µM

SMILES | Bacterial Biotransformation
COc1ccc(CCN(C)CCCC(C#N)(c2ccc(OC)c(OC)c2)C(C)C)cc1OC (stereo not drawn) | Compound NOT metabolized
Cc1ccc(S(=O)(=O)NC(=O)NN2CCCCCC2)cc1 [TOLAZAMIDE] | Compound NOT metabolized
O=C1C(CC[S+]([O-])c2ccccc2)C(=O)N(c2ccccc2)N1c1ccccc1 (stereo not drawn) [SULFINPYRAZONE] | Compound NOT metabolized
CCCCc1nc(Cl)c(CO)n1Cc1ccc(-c2ccccc2-c2nn[nH]n2)cc1 [LOSARTAN] | Compound metabolized

details: bacteroides stercoris, 12 h, 2 µM

SMILES | Bacterial Biotransformation
COc1ccc(CCN(C)CCCC(C#N)(c2ccc(OC)c(OC)c2)C(C)C)cc1OC (stereo not drawn) | Compound metabolized
Cc1ccc(S(=O)(=O)NC(=O)NN2CCCCCC2)cc1 [TOLAZAMIDE] | Compound metabolized
O=C1C(CC[S+]([O-])c2ccccc2)C(=O)N(c2ccccc2)N1c1ccccc1 (stereo not drawn) [SULFINPYRAZONE] | Compound NOT metabolized

— ChEMBL document CHEMBL5303573, “Mapping human microbiome drug metabolism by gut bacteria and their genes” (Nature, 2019)
